System: 349418-098-R-PDC complex spheroid viability
Test: Anticancer human tumor 349418-098-R-PDC patient-derived lung adenocarcinoma cell line growth inhibition
Conditions: for IC50: curve of first compound; for viability, T/C: stronger effect = lower value
Outline: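 Multicellular complex spheroids of tumor cells with human endothelial cells (HUVEC) and mesenchymal stem cells; the LSD1 inhibitor iadademstat was combined with standard-of-care or investigational agents. Top concentration at or near clinical Cmax, half-log dilutions; final DMSO ≤0.25%.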

[1] = second compound 0.1 µM, first compound 0.000316 µM
[2] = second compound 0.1 µM, first compound 0.001 µM
[3] = second compound 0.1 µM, first compound 0.00316 µM
[4] = second compound 0.1 µM, first compound 0.01 µM
[5] = second compound 0.1 µM, first compound 0.0316 µM
[6] = second compound 0.1 µM, first compound 0.1 µM
[7] = second compound 0.316 µM, first compound 0.000316 µM
[8] = second compound 0.316 µM, first compound 0.001 µM
[9] = second compound 0.316 µM, first compound 0.00316 µM
[10] = second compound 0.316 µM, first compound 0.01 µM
[11] = second compound 0.316 µM, first compound 0.0316 µM
[12] = second compound 0.316 µM, first compound 0.1 µM
[13] = second compound 1 µM, first compound 0.000316 µM
[14] = second compound 1 µM, first compound 0.001 µM
[15] = second compound 1 µM, first compound 0.00316 µM
[16] = second compound 1 µM, first compound 0.01 µM
[17] = second compound 1 µM, first compound 0.0316 µM
[18] = second compound 1 µM, first compound 0.1 µM
[19] = second compound 3.16 µM, first compound 0.000316 µM
[20] = second compound 3.16 µM, first compound 0.001 µM
[21] = second compound 3.16 µM, first compound 0.00316 µM
[22] = second compound 3.16 µM, first compound 0.01 µM
[23] = second compound 3.16 µM, first compound 0.0316 µM
[24] = second compound 3.16 µM, first compound 0.1 µM
[25] = second compound 10 µM, first compound 0.000316 µM
[26] = second compound 10 µM, first compound 0.001 µM
[27] = second compound 10 µM, first compound 0.00316 µM
[28] = second compound 10 µM, first compound 0.01 µM
[29] = second compound 10 µM, first compound 0.0316 µM
[30] = second compound 10 µM, first compound 0.1 µM
[31] = second compound 0.1 µM, first compound 0.00949 µM
[32] = second compound 0.1 µM, first compound 0.03 µM
[33] = second compound 0.1 µM, first compound 0.0949 µM
[34] = second compound 0.1 µM, first compound 0.3 µM
[35] = second compound 0.1 µM, first compound 0.949 µM
[36] = second compound 0.1 µM, first compound 3 µM
[37] = second compound 0.316 µM, first compound 0.00949 µM
[38] = second compound 0.316 µM, first compound 0.03 µM
[39] = second compound 0.316 µM, first compound 0.0949 µM
[40] = second compound 0.316 µM, first compound 0.3 µM
[41] = second compound 0.316 µM, first compound 0.949 µM
[42] = second compound 0.316 µM, first compound 3 µM
[43] = second compound 1 µM, first compound 0.00949 µM
[44] = second compound 1 µM, first compound 0.03 µM
[45] = second compound 1 µM, first compound 0.0949 µM
[46] = second compound 1 µM, first compound 0.3 µM
[47] = second compound 1 µM, first compound 0.949 µM
[48] = second compound 1 µM, first compound 3 µM
[49] = second compound 3.16 µM, first compound 0.00949 µM
[50] = second compound 3.16 µM, first compound 0.03 µM
[51] = second compound 3.16 µM, first compound 0.0949 µM
[52] = second compound 3.16 µM, first compound 0.3 µM
[53] = second compound 3.16 µM, first compound 0.949 µM
[54] = second compound 3.16 µM, first compound 3 µM
[55] = second compound 10 µM, first compound 0.00949 µM
[56] = second compound 10 µM, first compound 0.03 µM
[57] = second compound 10 µM, first compound 0.0949 µM
[58] = second compound 10 µM, first compound 0.3 µM
[59] = second compound 10 µM, first compound 0.949 µM
[60] = second compound 10 µM, first compound 3 µM
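Note: spheroids exposed to agents for seven days before readout.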
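Throughout, for viability, T/C: 100% = DMSO vehicle control wells.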

## CC(C)CC(NC(=O)C(Cc1ccccc1)NC(=O)c1cnccn1)B(O)O (stereo not given) + NC1CC1c1ccc(-c2cccc(O)c2)cc1
Second compound 0.1 µM
  IC50: < 0.316 nM
Second compound 0.316 µM
  IC50: < 0.316 nM
Second compound 1 µM
  IC50: < 0.316 nM
Second compound 3.16 µM
  IC50: < 0.316 nM
Second compound 10 µM
  IC50: < 0.316 nM
[1]
  viability, T/C: 2.67%
[2]
  viability, T/C: 1.51%
[3]
  viability, T/C: 1.31%
[4]
  viability, T/C: 0.5%
[5]
  viability, T/C: 0.51%
[6]
  viability, T/C: 0.69%
[7]
  viability, T/C: 1.86%
[8]
  viability, T/C: 1.09%
[9]
  viability, T/C: 0.81%
[10]
  viability, T/C: 0.41%
[11]
  viability, T/C: 0.45%
[12]
  viability, T/C: 0.34%
[13]
  viability, T/C: 1.69%
[14]
  viability, T/C: 1.07%
[15]
  viability, T/C: 0.72%
[16]
  viability, T/C: 0.42%
[17]
  viability, T/C: 0.29%
[18]
  viability, T/C: 0.53%
[19]
  viability, T/C: 1.62%
[20]
  viability, T/C: 0.92%
[21]
  viability, T/C: 0.86%
[22]
  viability, T/C: 1.06%
[23]
  viability, T/C: 0.37%
[24]
  viability, T/C: 0.41%
[25]
  viability, T/C: 0.84%
[26]
  viability, T/C: 0.41%
[27]
  viability, T/C: 0.68%
[28]
  viability, T/C: 0.31%
[29]
  viability, T/C: 0.14%
[30]
  viability, T/C: 0.17%

## CC(C)CC(NC(=O)CNC(=O)c1cc(Cl)ccc1Cl)B1OC(=O)CC(CC(=O)O)(C(=O)O)O1 (stereo not given) + NC1CC1c1ccc(-c2cccc(O)c2)cc1
Second compound 0.1 µM
  IC50: 0.846 nM
Second compound 0.316 µM
  IC50: 0.809 nM
Second compound 1 µM
  IC50: 0.802 nM
Second compound 3.16 µM
  IC50: 0.839 nM
Second compound 10 µM
  IC50: 0.646 nM
[1]
  viability, T/C: 108%
[2]
  viability, T/C: 40.2%
[3]
  viability, T/C: 5.55%
[4]
  viability, T/C: 2.78%
[5]
  viability, T/C: 1.26%
[6]
  viability, T/C: 1.31%
[7]
  viability, T/C: 114%
[8]
  viability, T/C: 35.6%
[9]
  viability, T/C: 4.64%
[10]
  viability, T/C: 1.64%
[11]
  viability, T/C: 1.2%
[12]
  viability, T/C: 0.9%
[13]
  viability, T/C: 109%
[14]
  viability, T/C: 36.1%
[15]
  viability, T/C: 5.1%
[16]
  viability, T/C: 1.67%
[17]
  viability, T/C: 1.15%
[18]
  viability, T/C: 0.9%
[19]
  viability, T/C: 115%
[20]
  viability, T/C: 38.4%
[21]
  viability, T/C: 4.76%
[22]
  viability, T/C: 1.62%
[23]
  viability, T/C: 0.95%
[24]
  viability, T/C: 1.19%
[25]
  viability, T/C: 94.3%
[26]
  viability, T/C: 22.8%
[27]
  viability, T/C: 3.46%
[28]
  viability, T/C: 1.24%
[29]
  viability, T/C: 0.47%
[30]
  viability, T/C: 0.62%

## Nc1ccccc1NC(=O)c1ccc(CNC(=O)OCc2cccnc2)cc1 + NC1CC1c1ccc(-c2cccc(O)c2)cc1
Second compound 0.1 µM
  IC50: 83.7 nM
Second compound 0.316 µM
  IC50: 102 nM
Second compound 1 µM
  IC50: 121 nM
Second compound 3.16 µM
  IC50: 145 nM
Second compound 10 µM
  IC50: 136 nM
[31]
  viability, T/C: 94%
[32]
  viability, T/C: 68.2%
[33]
  viability, T/C: 53.2%
[34]
  viability, T/C: 20.4%
[35]
  viability, T/C: 6.54%
[36]
  viability, T/C: 3.26%
[37]
  viability, T/C: 102%
[38]
  viability, T/C: 84.8%
[39]
  viability, T/C: 53.8%
[40]
  viability, T/C: 17.8%
[41]
  viability, T/C: 6.05%
[42]
  viability, T/C: 3.43%
[43]
  viability, T/C: 106%
[44]
  viability, T/C: 83.1%
[45]
  viability, T/C: 61.2%
[46]
  viability, T/C: 22.6%
[47]
  viability, T/C: 6.06%
[48]
  viability, T/C: 3.46%
[49]
  viability, T/C: 102%
[50]
  viability, T/C: 84.4%
[51]
  viability, T/C: 67.9%
[52]
  viability, T/C: 23.9%
[53]
  viability, T/C: 6.45%
[54]
  viability, T/C: 2.77%
[55]
  viability, T/C: 93.3%
[56]
  viability, T/C: 81.7%
[57]
  viability, T/C: 64.3%
[58]
  viability, T/C: 21.7%
[59]
  viability, T/C: 5.86%
[60]
  viability, T/C: 2.77%

## O=C(C=Cc1cccc(S(=O)(=O)Nc2ccccc2)c1)NO + NC1CC1c1ccc(-c2cccc(O)c2)cc1
Second compound 0.1 µM
  IC50: 54.8 nM
Second compound 0.316 µM
  IC50: 54.7 nM
Second compound 1 µM
  IC50: 53.8 nM
Second compound 3.16 µM
  IC50: 59.5 nM
Second compound 10 µM
  IC50: 36.4 nM
[31]
  viability, T/C: 76%
[32]
  viability, T/C: 70%
[33]
  viability, T/C: 20.3%
[34]
  viability, T/C: 3.17%
[35]
  viability, T/C: 0.96%
[36]
  viability, T/C: 103%
[37]
  viability, T/C: 76.8%
[38]
  viability, T/C: 70.2%
[39]
  viability, T/C: 19.2%
[40]
  viability, T/C: 3.03%
[41]
  viability, T/C: 0.63%
[42]
  viability, T/C: 103%
[43]
  viability, T/C: 83.1%
[44]
  viability, T/C: 68.7%
[45]
  viability, T/C: 20.3%
[46]
  viability, T/C: 3.41%
[47]
  viability, T/C: 0.58%
[48]
  viability, T/C: 103%
[49]
  viability, T/C: 77.7%
[50]
  viability, T/C: 78.5%
[51]
  viability, T/C: 22.2%
[52]
  viability, T/C: 3.57%
[53]
  viability, T/C: 0.78%
[54]
  viability, T/C: 96.6%
[55]
  viability, T/C: 81.5%
[56]
  viability, T/C: 56.3%
[57]
  viability, T/C: 14.6%
[58]
  viability, T/C: 3.03%
[59]
  viability, T/C: 0.44%
[60]
  viability, T/C: 58.3%

## O=C(c1cc(Cc2n[nH]c(=O)c3ccccc23)ccc1F)N1CCN(C(=O)C2CC2)CC1 + NC1CC1c1ccc(-c2cccc(O)c2)cc1
Second compound 0.1 µM
  IC50: 8910 nM
Second compound 0.316 µM
  IC50: 8220 nM
Second compound 1 µM
  IC50: 8040 nM
Second compound 3.16 µM
  IC50: > 10000 nM
Second compound 10 µM
  IC50: 3190 nM
[5]
  viability, T/C: 106%
[6]
  viability, T/C: 108%
Second compound 0.1 µM, first compound 0.316 µM
  viability, T/C: 99.3%
Second compound 0.1 µM, first compound 1 µM
  viability, T/C: 99.3%
Second compound 0.1 µM, first compound 3.16 µM
  viability, T/C: 86%
Second compound 0.1 µM, first compound 10 µM
  viability, T/C: 45.5%
[11]
  viability, T/C: 111%
[12]
  viability, T/C: 105%
Second compound 0.316 µM, first compound 0.316 µM
  viability, T/C: 103%
Second compound 0.316 µM, first compound 1 µM
  viability, T/C: 98.5%
Second compound 0.316 µM, first compound 3.16 µM
  viability, T/C: 77.6%
Second compound 0.316 µM, first compound 10 µM
  viability, T/C: 43.9%
[17]
  viability, T/C: 116%
[18]
  viability, T/C: 106%
Second compound 1 µM, first compound 0.316 µM
  viability, T/C: 105%
Second compound 1 µM, first compound 1 µM
  viability, T/C: 104%
Second compound 1 µM, first compound 3.16 µM
  viability, T/C: 69.1%
Second compound 1 µM, first compound 10 µM
  viability, T/C: 45.5%
[23]
  viability, T/C: 116%
[24]
  viability, T/C: 111%
Second compound 3.16 µM, first compound 0.316 µM
  viability, T/C: 101%
Second compound 3.16 µM, first compound 1 µM
  viability, T/C: 105%
Second compound 3.16 µM, first compound 3.16 µM
  viability, T/C: 75.5%
Second compound 3.16 µM, first compound 10 µM
  viability, T/C: 52.3%
[29]
  viability, T/C: 97.1%
[30]
  viability, T/C: 90.3%
Second compound 10 µM, first compound 0.316 µM
  viability, T/C: 75.2%
Second compound 10 µM, first compound 1 µM
  viability, T/C: 67%
Second compound 10 µM, first compound 3.16 µM
  viability, T/C: 49.9%
Second compound 10 µM, first compound 10 µM
  viability, T/C: 33.6%

From PubChem BioAssay AID1918936 (Molecular Pharmacology Branch, DTP, NCI, 2023)
